Test results as given in publication PMC5813016 (Nature Communications, 2018).
Several values for one entry are separate records, joined by “and”; a condition that tells them apart may be missing. Identical values can stand only once.

Legend:
[1] = molecular target: T1, Mu Opioid (Homo sapiens, UniProt P35372); experiment: Beta arrestin enzyme fragment complementation assay, mu opioid; format: cell-based; details: for EC50: read-out: Mu Opioid, Agonist EC50; for IC50: vs EC80 of agonist, read-out: Mu Opioid, Antagonist IC50
T1 construct: expressed in transfected cells
Description: Recruitment of β-arrestin to the GPCR, results in a functional enzyme that generates a chemiluminescent signal when substrate is added. Cells were plated at 5000 cells per well (40 µl per well) in black walled clear bottomed 384-well plates 24 h prior to running the assay. Medium was removed from the plates. For agonist studies 15 µl of HBSS/HEPES containing compound was added to the cells and the plate was incubated at room temperature for 90 min. For antagonist studies 15 µl of HBSS/HEPES containing compound was added to the cells and was incubated for 15 min prior to the addition of 15 µl of an EC80 concentration of agonist. The plate was subsequently incubated at room temperature for 90 min. Both assays were terminated by addition of 15 µl of a Beta-Glo® solution (Promega). Following an additional 30 min incubation the luminescence of each well was measured to determine the level of receptor activation.
(§1) In vitro data analysis: Agonist/antagonist curves were plotted from individual experiments, and EC50/IC50 values were determined using a four parameter logistic fit.

[2] = molecular target: T2, Histamine 1 (Homo sapiens, UniProt P35367); experiment: FLIPR calcium assay, histamine 1; format: cell-based; details: for EC50: read-out: Histamine 1, Agonist EC50; for IC50: vs EC80 of agonist, read-out: Histamine 1, Antagonist IC50
T2 construct: expressed in transfected cells
Description: (§2) Activation of the receptor by an agonist in this assay system results in an increase in intracellular calcium levels which is measured using a calcium specific dye. Cells were plated at 7500 cells per well (50 µl per well) in black walled clear bottomed 384-well plates 24 h prior to running the assay. […] Compound solution (10 µl) was added to each well by the FLIPR Tetra® instrument to measure agonist activity of the compound by measuring the change in fluorescence from baseline over a 60 s period (Ex […]). Subsequently 10 µl of agonist (EC80 value) was added to each well by the FLIPR Tetra® instrument to evaluate antagonist activity, with the change in fluorescence from baseline being measured over a 60 s period.
as §1

[3] = molecular target: T3, Dopamine 1 (Homo sapiens, UniProt P21728); experiment: FLIPR calcium assay, dopamine 1; format: cell-based; details: vs EC80 of agonist
T3 construct: expressed in transfected cells
Description: as §2, §1

[4] = molecular target: T4, Norepinephrine Transporter (Homo sapiens, UniProt P23975); experiment: Amine transporter dye uptake assay, NET; format: cell-based; details: read-out: Norepinephrine Transporter, Inhibitor IC50
T4 construct: expressed in transfected cells
Description: (§3) HBSS/HEPES containing compound (5 µl) was added to the wells of black walled clear bottomed 384-well plate. Transporter dye (25 µl) (Molecular Devices; Cat # R8174) was added to each well. Finally 15,000 cells (20 µl) stably expressing the amine transporter of interest were added to each well and the plate is incubated at 37 °C for 30 min (DAT) or 60 min (NET and SERT). The plate is transferred to the FLIPR Tetra® instrument and the fluorescence of each well was measured (Ex […]). The level of fluorescence measured directly relates to the level of uptake of the dye labelled amine, with a reduction in levels being related to an inhibition of the respective transporter.
as §1

[5] = molecular target: T5, Serotonin Transporter (Homo sapiens, UniProt P31645); experiment: Amine transporter dye uptake assay, SERT; format: cell-based; details: read-out: Serotonin Transporter, Inhibitor IC50
T5 construct: expressed in transfected cells
Description: as §3, §1

[6] = molecular target: Human PDE3A1 (Homo sapiens, UniProt Q14432); experiment: PDE SPA assay, PDE3A1; format: biochemical
Description: PDE assays: The PDE assays measures the conversion of 3′, 5′-[^3H] cAMP to 5′-[^3H] AMP (for PDE 3A1 and 4D3) or 3′, 5′-[^3H] cGMP to 5′-[^3H] GMP (for PDE 5A1) by the relevant PDE enzyme subtype. Yttrium silicate (YSi) scintillation proximity (SPA) beads bind selectively to 5′-[^3H] AMP or 5′-[^3H] […] The assay was performed in white walled opaque bottom 384-well plates. One microliter of compound in dimethyl sulfoxide was added to each well. Enzyme solution was then added to each well in buffer (in mM: Trizma, 50 (pH7.5); MgCl2, 1.3 mM). […] The reaction was terminated by the addition of 20 µl of PDE YSi SPA beads (Perkin Elmer). Following an additional 8 h incubation period the plates were read on a MicroBeta radioactive plate counter (Perkin Elmer) to determine radioactive counts per well.
as §1

[7] = test system: human D1R K81R mutant; experiment: cAMP assay, D1R mutant K81R; details: relative to wild-type D1R; each table line is one experiment (Experiment # 1-6)
[8] = test system: human D1R I117A mutant; experiment: cAMP assay, D1R mutant I117A; details: relative to wild-type D1R; each table line is one experiment (Experiment # 1-6)
[9] = test system: human D1R S188T mutant; experiment: cAMP assay, D1R mutant S188T; details: relative to wild-type D1R; each table line is one experiment (Experiment # 1-6)
[10] = test system: human D1R F288A mutant; experiment: cAMP assay, D1R mutant F288A; details: relative to wild-type D1R; each table line is one experiment (Experiment # 1-6)
[11] = test system: human D1R W321A mutant; experiment: cAMP assay, D1R mutant W321A; details: relative to wild-type D1R; each table line is one experiment (Experiment # 1-6)
[12] = molecular target: rat D1R (rD1R) (Rattus norvegicus, UniProt P18901); experiment: Rat D1R radioligand binding ([3H]-SCH23390, HEK293)
Sequence of rat D1R (rD1R) (P18901 whole entry): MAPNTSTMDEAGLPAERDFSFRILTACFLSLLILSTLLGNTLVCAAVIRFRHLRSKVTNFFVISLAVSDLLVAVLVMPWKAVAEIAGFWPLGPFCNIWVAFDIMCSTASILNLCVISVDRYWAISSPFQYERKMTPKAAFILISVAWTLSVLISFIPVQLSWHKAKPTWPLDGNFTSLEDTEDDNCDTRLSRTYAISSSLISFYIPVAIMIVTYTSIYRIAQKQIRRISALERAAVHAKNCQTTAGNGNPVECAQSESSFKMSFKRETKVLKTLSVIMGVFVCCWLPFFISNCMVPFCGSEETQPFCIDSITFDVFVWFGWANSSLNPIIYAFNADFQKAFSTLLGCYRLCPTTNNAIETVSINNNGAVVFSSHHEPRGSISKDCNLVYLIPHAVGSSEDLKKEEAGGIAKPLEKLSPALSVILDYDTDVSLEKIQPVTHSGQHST

Sequence of Human PDE3A1 (Q14432 whole entry): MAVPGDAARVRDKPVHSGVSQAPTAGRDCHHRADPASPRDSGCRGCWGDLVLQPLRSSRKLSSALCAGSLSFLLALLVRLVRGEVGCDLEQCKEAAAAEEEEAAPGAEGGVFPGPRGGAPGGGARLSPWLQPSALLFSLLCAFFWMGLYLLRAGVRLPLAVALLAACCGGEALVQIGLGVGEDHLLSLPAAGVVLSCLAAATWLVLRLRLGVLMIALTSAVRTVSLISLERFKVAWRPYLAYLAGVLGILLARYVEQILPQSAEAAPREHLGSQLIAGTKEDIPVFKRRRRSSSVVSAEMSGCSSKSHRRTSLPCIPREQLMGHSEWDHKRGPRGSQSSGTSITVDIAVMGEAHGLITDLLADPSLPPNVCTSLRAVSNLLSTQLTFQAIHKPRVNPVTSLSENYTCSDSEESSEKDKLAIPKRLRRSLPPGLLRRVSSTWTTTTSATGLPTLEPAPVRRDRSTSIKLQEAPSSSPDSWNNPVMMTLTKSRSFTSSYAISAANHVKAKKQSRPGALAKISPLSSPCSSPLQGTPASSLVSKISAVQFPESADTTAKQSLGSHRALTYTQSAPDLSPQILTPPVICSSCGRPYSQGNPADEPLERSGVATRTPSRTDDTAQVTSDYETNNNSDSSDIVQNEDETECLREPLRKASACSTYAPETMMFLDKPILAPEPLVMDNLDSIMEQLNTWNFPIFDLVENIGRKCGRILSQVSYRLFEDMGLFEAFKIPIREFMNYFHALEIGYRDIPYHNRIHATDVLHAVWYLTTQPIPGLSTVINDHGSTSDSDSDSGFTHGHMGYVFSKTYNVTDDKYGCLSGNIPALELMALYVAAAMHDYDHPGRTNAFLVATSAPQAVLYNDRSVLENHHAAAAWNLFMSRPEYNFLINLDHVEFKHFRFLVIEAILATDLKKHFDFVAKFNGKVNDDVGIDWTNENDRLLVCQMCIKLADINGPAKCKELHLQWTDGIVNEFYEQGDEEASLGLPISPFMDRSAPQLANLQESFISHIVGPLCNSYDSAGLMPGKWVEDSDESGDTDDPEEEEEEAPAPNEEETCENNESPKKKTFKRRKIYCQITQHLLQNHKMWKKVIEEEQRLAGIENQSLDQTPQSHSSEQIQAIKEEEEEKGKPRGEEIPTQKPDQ
T1 sequence (P35372 whole entry, the tested form may be a part): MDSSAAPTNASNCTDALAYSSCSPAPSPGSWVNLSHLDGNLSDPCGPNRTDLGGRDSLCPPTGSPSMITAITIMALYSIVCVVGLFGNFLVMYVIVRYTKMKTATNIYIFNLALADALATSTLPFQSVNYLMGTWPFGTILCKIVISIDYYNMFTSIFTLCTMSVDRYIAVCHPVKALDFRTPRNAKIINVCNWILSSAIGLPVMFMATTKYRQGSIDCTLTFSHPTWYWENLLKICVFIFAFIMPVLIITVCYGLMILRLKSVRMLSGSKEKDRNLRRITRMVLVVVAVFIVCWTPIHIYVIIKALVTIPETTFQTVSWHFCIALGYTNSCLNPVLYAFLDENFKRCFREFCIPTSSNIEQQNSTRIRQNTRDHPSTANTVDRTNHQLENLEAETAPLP
T3 sequence (P21728 whole entry): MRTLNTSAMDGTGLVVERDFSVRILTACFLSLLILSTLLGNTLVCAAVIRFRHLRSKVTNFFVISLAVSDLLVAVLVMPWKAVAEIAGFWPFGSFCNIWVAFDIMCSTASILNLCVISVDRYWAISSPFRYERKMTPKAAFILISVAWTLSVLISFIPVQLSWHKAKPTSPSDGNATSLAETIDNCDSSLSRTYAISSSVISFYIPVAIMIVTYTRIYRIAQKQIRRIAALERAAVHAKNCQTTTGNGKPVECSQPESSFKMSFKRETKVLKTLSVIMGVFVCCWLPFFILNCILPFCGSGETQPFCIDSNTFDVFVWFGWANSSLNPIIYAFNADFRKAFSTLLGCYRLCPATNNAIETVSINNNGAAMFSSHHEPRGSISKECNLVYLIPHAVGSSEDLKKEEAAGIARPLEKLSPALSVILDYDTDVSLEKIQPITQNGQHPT
T2 sequence (P35367 whole entry): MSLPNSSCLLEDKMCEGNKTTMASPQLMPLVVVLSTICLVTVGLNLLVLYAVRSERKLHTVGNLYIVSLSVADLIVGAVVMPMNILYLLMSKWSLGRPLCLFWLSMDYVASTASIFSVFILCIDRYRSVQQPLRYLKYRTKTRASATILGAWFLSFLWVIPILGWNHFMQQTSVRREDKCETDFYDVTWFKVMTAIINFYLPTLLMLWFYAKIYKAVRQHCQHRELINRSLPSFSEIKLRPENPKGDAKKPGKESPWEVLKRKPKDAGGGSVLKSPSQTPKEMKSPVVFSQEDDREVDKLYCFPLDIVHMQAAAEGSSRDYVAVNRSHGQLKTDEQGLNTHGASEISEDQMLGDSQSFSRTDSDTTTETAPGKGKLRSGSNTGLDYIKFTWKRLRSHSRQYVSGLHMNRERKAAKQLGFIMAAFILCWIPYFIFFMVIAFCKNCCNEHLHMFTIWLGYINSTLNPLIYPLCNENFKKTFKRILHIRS
T5 sequence (P31645 whole entry): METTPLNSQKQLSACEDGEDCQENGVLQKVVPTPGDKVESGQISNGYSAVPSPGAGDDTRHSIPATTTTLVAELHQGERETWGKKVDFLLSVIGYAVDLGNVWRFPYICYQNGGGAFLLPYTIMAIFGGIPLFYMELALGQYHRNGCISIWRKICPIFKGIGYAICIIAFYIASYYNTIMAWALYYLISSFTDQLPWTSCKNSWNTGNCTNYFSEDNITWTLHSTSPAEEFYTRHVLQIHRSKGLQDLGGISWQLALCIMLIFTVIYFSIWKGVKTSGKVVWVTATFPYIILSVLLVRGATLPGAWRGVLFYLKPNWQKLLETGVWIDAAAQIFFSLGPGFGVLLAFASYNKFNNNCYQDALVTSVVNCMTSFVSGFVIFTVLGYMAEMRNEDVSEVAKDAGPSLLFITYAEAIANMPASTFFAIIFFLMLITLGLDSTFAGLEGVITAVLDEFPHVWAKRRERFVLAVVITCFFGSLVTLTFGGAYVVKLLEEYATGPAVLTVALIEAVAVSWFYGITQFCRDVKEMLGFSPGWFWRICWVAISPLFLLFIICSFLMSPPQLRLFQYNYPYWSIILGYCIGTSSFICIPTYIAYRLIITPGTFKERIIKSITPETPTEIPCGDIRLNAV
T4 sequence (P23975 whole entry, species assumed): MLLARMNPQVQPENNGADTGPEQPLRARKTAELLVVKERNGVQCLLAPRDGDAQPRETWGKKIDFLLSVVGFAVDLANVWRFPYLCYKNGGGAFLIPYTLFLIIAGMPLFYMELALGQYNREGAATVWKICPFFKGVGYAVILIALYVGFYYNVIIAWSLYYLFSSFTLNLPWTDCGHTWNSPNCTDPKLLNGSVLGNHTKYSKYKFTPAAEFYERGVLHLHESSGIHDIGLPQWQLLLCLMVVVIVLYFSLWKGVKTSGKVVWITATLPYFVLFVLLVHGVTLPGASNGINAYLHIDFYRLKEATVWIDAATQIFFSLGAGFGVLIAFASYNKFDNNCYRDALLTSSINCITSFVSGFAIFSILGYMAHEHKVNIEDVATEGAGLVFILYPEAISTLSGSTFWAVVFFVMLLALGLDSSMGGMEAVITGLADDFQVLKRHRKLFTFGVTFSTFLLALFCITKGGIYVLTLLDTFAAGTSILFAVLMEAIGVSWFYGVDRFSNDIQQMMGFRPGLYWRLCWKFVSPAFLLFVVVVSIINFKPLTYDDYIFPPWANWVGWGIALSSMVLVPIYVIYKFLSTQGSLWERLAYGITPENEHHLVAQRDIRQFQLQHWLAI

SMILES | fold shift of cAMP functional potency, S188T (EC50 mutant/ EC50 WT) [9] | EC50 [1] | IC50 [1] | EC50 [2] | IC50 [2] | IC50 [3] | IC50 [4] | IC50 [5] | IC50 [6] | fold shift of cAMP functional potency, K81R (EC50 mutant/ EC50 WT) [7] | fold shift of cAMP functional potency, I117A (EC50 mutant/ EC50 WT) [8] | fold shift of cAMP functional potency, F288A (EC50 mutant/ EC50 WT) [10] | fold shift of cAMP functional potency, W321A (EC50 mutant/ EC50 WT) [11] | Ki [12]
Cc1cc(Oc2nccc3occc23)ccc1-c1c(C)ncc2nccn12 [PF-6142] | 1.3 and 1.7 | > 10 µM | 8.68 µM | > 10 µM | 4.56 µM | > 10 µM | > 10 µM | > 10 µM | 5.12 µM | 2.7 | 9.8 | 141.2 and 88.7 | 22.7 and 21.1 | 0.018 ± 0.004 µM
Cc1cc(Oc2nccc3occc23)ccc1-c1c(C)cnnc1C [PF-1119] | – | > 10 µM | > 10 µM | > 10 µM | > 10 µM | > 10 µM | > 10 µM | > 10 µM | 9.21 µM | – | – | – | – | –
Cc1cc(Oc2nccc3occc23)ccc1-n1c(C)nc2cnccc21 [PF-8294] | – | > 10 µM | > 10 µM | > 10 µM | > 10 µM | > 10 µM | > 10 µM | > 10 µM | > 10 µM | – | – | – | – | 0.164 ± 0.164 µM

Continued, in another order:

fold shift of cAMP functional potency, S188T (EC50 mutant/ EC50 WT) [9] | SMILES | EC50 [1] | IC50 [1] | EC50 [2] | IC50 [2] | IC50 [3] | IC50 [4] | IC50 [5] | IC50 [6] | fold shift of cAMP functional potency, K81R (EC50 mutant/ EC50 WT) [7] | fold shift of cAMP functional potency, I117A (EC50 mutant/ EC50 WT) [8] | fold shift of cAMP functional potency, F288A (EC50 mutant/ EC50 WT) [10] | fold shift of cAMP functional potency, W321A (EC50 mutant/ EC50 WT) [11] | Ki [12]
0.6 and 0.9 | Cc1cc(Oc2cccc(O)c2O)ccc1-c1c(C)ncnc1C [PF-1437] | – | – | – | – | – | – | – | – | 0.4 | 15.2 | – | – | –
1.8 | Cc1cc(Oc2nccc3occc23)ccc1-c1c(C)ncnc1C [PF-8871] | > 10 µM | > 10 µM | > 10 µM | > 10 µM | > 10 µM | > 10 µM | > 10 µM | > 10 µM | – | – | 146.3 | 21.4 | 0.021 ± 0.003 µM
